Reference: ChEMBL document CHEMBL5634174, “Biological evaluation of sulfonate and sulfate analogues of lithocholic acid: A bioisosterism-guided approach towards the discovery of potential sialyltransferase inhibitors for antimetastatic study” (Bioorg Med Chem Lett, 2024)
Active and inactive are the calls of the source. The calls are words filed in the database; no cut-off is given here.

What was measured:
[1] = molecular target: T1, Beta-galactoside alpha-2,6-sialyltransferase 1 (Homo sapiens, UniProt P15907); experiment: Inhibition of human ST6GAL1 in the Galbeta1,4GlcNAcbeta-4,5-dimethoxy-2-nitrobenzyl
T1 sequence (P15907 whole entry): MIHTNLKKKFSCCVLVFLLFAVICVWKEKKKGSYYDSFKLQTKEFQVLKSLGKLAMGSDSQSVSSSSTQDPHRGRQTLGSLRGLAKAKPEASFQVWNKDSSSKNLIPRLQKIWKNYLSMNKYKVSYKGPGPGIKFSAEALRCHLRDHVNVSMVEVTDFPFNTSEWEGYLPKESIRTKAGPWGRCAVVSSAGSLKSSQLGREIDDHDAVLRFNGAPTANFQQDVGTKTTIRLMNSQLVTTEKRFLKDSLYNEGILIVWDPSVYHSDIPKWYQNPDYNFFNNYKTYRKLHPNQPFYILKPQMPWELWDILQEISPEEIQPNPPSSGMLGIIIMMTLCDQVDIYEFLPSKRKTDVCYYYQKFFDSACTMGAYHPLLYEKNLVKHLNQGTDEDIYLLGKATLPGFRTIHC

[2] = molecular target: T2, Sialyltransferase ST3Gal-I (Rattus norvegicus) (UniProt Q6H8N0); experiment: Inhibition of rat ST3GAL1 at 1000 uM by UPLC-based assay relative to control
T2 sequence (whole entry): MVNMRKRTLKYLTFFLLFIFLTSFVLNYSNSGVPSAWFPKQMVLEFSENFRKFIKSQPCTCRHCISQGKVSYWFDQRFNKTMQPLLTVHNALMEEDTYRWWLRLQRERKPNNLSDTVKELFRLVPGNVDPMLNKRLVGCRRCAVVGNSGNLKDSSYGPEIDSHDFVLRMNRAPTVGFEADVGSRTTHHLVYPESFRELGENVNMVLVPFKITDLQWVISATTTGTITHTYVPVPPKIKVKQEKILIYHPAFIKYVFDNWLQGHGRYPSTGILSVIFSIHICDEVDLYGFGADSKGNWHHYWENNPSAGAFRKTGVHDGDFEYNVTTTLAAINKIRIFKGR

[3] = molecular target: T1, Beta-galactoside alpha-2,6-sialyltransferase 1; experiment: Inhibition of recombinant human N-terminal His tagged ST6GAL1 (44 to 406 residues) by UPLC-based assay
MDA-MB-231 [4] = experiment: Antimigratory activity against human MDA-MB-231 cells at 60 uM incubated for 16 hrs by transwell migration assay; type: functional, cell-based
[5] = molecular target: T3, Sialyltransferase ST3Gal-I (Rattus norvegicus, UniProt Q6H8N0); experiment: Inhibition of rat ST3GAL1 by UPLC-based assay
T3 sequence (Q6H8N0 whole entry): T2 sequence (whole entry)

[6] = molecular target: T2, Sialyltransferase ST3Gal-I (Rattus norvegicus); experiment: Inhibition of rat ST3GAL1 at 500 uM by UPLC-based assay relative to control
[7] = molecular target: T4, Beta-galactoside alpha-2,6-sialyltransferase 1 (Homo sapiens) (UniProt P15907); experiment: Inhibition of recombinant human N-terminal His tagged ST6GAL1 (44 to 406 residues) at 50 uM by UPLC-based assay relative to control
T4 sequence (whole entry): T1 sequence (P15907 whole entry)

[8] = Selectivity index, ratio of IC50 for inhibition of rat ST3GAL1 to IC50 for inhibition of human ST6GAL1
[9] = molecular target: T5, CMP-N-acetylneuraminate-beta-galactosamide-alpha-2,3-sialyltransferase 1 (Mus musculus, UniProt P54751); experiment: Inhibition of mouse brain ST3Gal1 expressed in COS-7 cells using CMP-[14C]NeuAc as substrate assessed as inhibition of constant incubated for 30 mins in presence of Galbeta1,3GalNAcOBzl by Lineweaver-Burk plot analysis
T5 sequence (P54751 whole entry): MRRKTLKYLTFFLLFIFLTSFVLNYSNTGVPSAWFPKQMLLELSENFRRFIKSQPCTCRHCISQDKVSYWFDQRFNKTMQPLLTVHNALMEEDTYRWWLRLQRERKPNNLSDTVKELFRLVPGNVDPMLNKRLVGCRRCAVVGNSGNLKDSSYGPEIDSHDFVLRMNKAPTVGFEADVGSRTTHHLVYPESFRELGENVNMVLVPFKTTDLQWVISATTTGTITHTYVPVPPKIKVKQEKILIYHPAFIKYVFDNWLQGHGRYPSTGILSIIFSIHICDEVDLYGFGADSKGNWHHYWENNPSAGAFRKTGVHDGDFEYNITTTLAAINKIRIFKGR

[10] = molecular target: T1, Beta-galactoside alpha-2,6-sialyltransferase 1; experiment: Inhibition of ST6GAL1 (unknown origin)
[11] = molecular target: T6, CMP-N-acetylneuraminate-beta-1,4-galactoside alpha-2,3-sialyltransferase (Homo sapiens, UniProt Q11203); experiment: Inhibition of ST3GAL3 (unknown origin)
T6 sequence (Q11203 whole entry): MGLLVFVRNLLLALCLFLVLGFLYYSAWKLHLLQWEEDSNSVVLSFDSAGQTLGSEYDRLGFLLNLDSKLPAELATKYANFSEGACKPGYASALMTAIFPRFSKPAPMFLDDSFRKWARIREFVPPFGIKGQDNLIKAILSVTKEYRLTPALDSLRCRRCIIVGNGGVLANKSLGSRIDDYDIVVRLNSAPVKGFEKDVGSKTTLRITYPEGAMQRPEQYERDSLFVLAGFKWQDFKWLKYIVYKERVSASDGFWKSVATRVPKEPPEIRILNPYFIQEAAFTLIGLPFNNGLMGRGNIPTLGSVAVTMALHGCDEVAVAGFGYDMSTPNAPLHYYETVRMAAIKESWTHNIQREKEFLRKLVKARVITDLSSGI

[12] = molecular target: T7, CMP-N-acetylneuraminate-beta-galactosamide-alpha-2,3-sialyltransferase 1 (Homo sapiens, UniProt Q11201); experiment: Inhibition of ST3GAL1 (unknown origin)
T7 sequence (Q11201 whole entry): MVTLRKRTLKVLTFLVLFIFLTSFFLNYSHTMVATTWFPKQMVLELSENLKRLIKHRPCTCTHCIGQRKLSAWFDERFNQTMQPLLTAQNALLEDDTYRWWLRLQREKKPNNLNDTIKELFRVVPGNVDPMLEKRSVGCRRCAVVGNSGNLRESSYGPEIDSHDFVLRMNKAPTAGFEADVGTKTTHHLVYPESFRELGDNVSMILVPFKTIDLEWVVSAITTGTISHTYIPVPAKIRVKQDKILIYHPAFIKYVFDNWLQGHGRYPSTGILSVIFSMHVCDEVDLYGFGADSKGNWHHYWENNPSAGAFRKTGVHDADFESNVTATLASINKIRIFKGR

MDA-MB-231 [13] = experiment: Inhibition of cell invasion in human MDA-MB-231 cells assessed as reduction in cell adhesion to collagen IV at 60 uM incubated for 48 hrs; type: functional, cell-based
MDA-MB-231 [14] = experiment: Inhibition of cell invasion in human MDA-MB-231 cells assessed as reduction in cell adhesion to fibronectin at 60 uM incubated for 24 hrs; type: functional, cell-based
MDA-MB-231 [15] = experiment: Inhibition of cell invasion in human MDA-MB-231 cells assessed as reduction in cell adhesion at 60 uM after 48 hrs; type: functional, cell-based
MDA-MB-231 [16] = experiment: Antiproliferative activity against human MDA-MB-231 cells assessed as cell viability at 80 uM by MTT assay; type: functional, cell-based

SMILES	inhibition [2] [%]	IC50 [3] [µM]	IC50 [5] [µM]	inhibition [6] [%]	inhibition [7] [%]	also measured
C[C@H](CCC(=O)O)[C@H]1CC[C@H]2[C@@H]3CC[C@@H]4C[C@H](OC(=O)[C@@H](N)CC(=O)O)CC[C@]4(C)[C@H]3CC[C@]12C	–	–	–	–	–	IC50 [1]: 17 µM
C[C@H](CCCS(=O)(=O)O)[C@H]1CC[C@H]2[C@@H]3CC[C@@H]4C[C@H](O)CC[C@]4(C)[C@H]3CC[C@]12C	40	18.5	> 1000	5	100	Activity (MDA-MB-231 [4]): Active; Ratio IC50 [8]: > 54
C[C@H](CCC(=O)O)[C@H]1CC[C@H]2[C@@H]3CC[C@@H]4C[C@H](O)CC[C@]4(C)[C@H]3CC[C@]12C [LITHOCHOLIC ACID]	64	> 50	500	53	0	–
C[C@H](CCC(=O)NCCS(=O)(=O)O)[C@H]1CC[C@H]2[C@@H]3CC[C@@H]4C[C@H](O)CC[C@]4(C)[C@H]3C[C@H](O)[C@]12C [TAURODEOXYCHOLIC ACID]	–	> 50	> 500	3	0	–
C[C@H](CCC(=O)O)[C@H]1CC[C@H]2[C@@H]3CC[C@@H]4C[C@H](OS(=O)(=O)O)CC[C@]4(C)[C@H]3CC[C@]12C	82	> 50	500	23	0	–
C[C@@H]1O[C@@H](O[C@H]2[C@H](O[C@H]3[C@H](O[C@H]4CC[C@@]5(C)[C@@H](CC[C@]6(C)[C@@H]5CC=C5[C@@H]7CC(C)(C)C[C@@H](O)[C@]7(C)CC[C@]56C)[C@@]4(C)CO)O[C@H](C(=O)O)[C@@H](O)[C@@H]3O)O[C@H](CO)[C@H](O)[C@@H]2O)[C@H](O)[C@H](O)[C@H]1O [SOYASAPONIN I]	–	–	–	–	–	Ki [9]: 2300 nM
C[C@H](CCC(=O)O)[C@H]1CC[C@H]2[C@@H]3CC[C@@H]4C[C@H](OC(=O)[C@H](CC(=O)O)Nc5ccc([N+](=O)[O-])c6nonc56)CC[C@]4(C)[C@H]3CC[C@]12C	–	–	–	–	–	IC50 [10]: 1500 nM; IC50 [11]: 880 nM; IC50 [12]: 13 µM
C[C@H](CCC(=O)O)[C@H]1CC[C@H]2[C@@H]3[C@H](O)C[C@@H]4C[C@H](O)CC[C@]4(C)[C@H]3CC[C@]12C [CHENODIOL]	–	> 50	> 500	6	0	–
C[C@H](CCCOS(=O)(=O)O)[C@H]1CC[C@H]2[C@@H]3CC[C@@H]4C[C@H](OS(=O)(=O)O)CC[C@]4(C)[C@H]3CC[C@]12C	100	21.5	402	90	100	inhibition (MDA-MB-231 [13]): Active; Activity (MDA-MB-231 [4]): Active; inhibition (MDA-MB-231 [14]): Active; inhibition (MDA-MB-231 [15]): inactive; Ratio IC50 [8]: 19
C[C@H](CCC(=O)O)[C@H]1CC[C@H]2[C@@H]3C[C@H](O)[C@@H]4C[C@H](O)CC[C@]4(C)[C@H]3CC[C@]12C [HYODEOXYCHOLIC_ACID]	–	> 50	> 500	7	0	–
C[C@H](CCC(=O)O)[C@H]1CC[C@H]2[C@@H]3[C@@H](O)C[C@@H]4C[C@H](O)CC[C@]4(C)[C@H]3CC[C@]12C [URSODIOL]	–	> 50	> 500	3	0	–
C[C@H](CCCS(=O)(=O)O)[C@H]1CC[C@H]2[C@@H]3CC[C@@H]4C[C@H](OS(=O)(=O)O)CC[C@]4(C)[C@H]3CC[C@]12C	100	> 50	500	35	0	Activity (MDA-MB-231 [16]): Active
